# Source: EP3290412A1, “HIV-1 NUCLEOCAPSID INHIBITORS” (Università degli Studi di Siena, priority 2016, dated 2018)
# Like-named read-outs stand apart in the source and are kept apart here.
# Tests used:
# [1] = target: NC(11-55) (Human immunodeficiency virus type 1, UniProt P12493); assay: NC inhibition assay (NC-induced cTAR DNA destabilization, fluorescence); assay type: biochemical, HIV-1; conditions: for inhibition at 100 µM: single point screening, positive = >25% inhibition at 100µM
# In short: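 Doubly labelled cTAR (0.1 µM, Alexa488/Dabcyl) pre-complexed with 1 µM Zn-loaded NC(11-55) for 15 min, then compound added for a further 15 min; run at 20 °C in Tris-HCl pH 7.5, 30 mM NaCl, 0.2 mM MgCl2. Fluorescence read at ex 480/em 520 nm. IC50 taken from dose-response fit of % inhibition of NC-induced fluorescence increase.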
# [2] = system: HIV-1 reference strain NL4-3; assay: MonoCycle assay (TZM-bl cells); assay type: cell-based
# In short: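 TZM-bl cells (20,000/well) were infected with NL4-3 in the presence of five-fold serial inhibitor dilutions. After 48 h, cells were lysed and luciferase luminescence (RLU) was counted. IC50 was derived from the RLU data.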
# [3] = Human immunodeficiency virus 1, NL43, TZM-bl, 48 h, read-out: Mono Cycle IC50 nM
Compound,IC50 [1],inhibition at 100 µM [1],"IC50 [2, 3]","IC50 ([2]; Human immunodeficiency virus 1, NL43, TZM-bl cells, NL4-3, 48 hours, read-out: Mono Cycle IC50)"
"Cc1ccnc(-c2nc(O)c(O)c(C(=O)N[C@@H](C)C3CCCCC3)n2)c1 [Compound 79, (S)-N-(1-cyclohexylethyl)-5,6-dihydroxy-2-(4-methylpyridin-2-yl)pyrimidine-4-carboxamide]",41 µM,> 25%,2350 nM,–
"COc1ccnc(-c2nc(O)c(O)c(C(=O)NC3CCC(C)(C)CC3)n2)c1 [Compound 77, N-(4,4-dimethylcyclohexyl)-5,6-dihydroxy-2-(4-methoxypyridin-2-yl)pyrimidine-4-carboxamide]",23.5 µM,> 25%,17300 nM,–
"C[C@@H](NC(=O)c1nc(-c2cccc(N)n2)nc(O)c1O)C1CCCCC1 [Compound 45, (R)-2-(6-aminopyridin-2-yl)-N-(1-cyclohexylethyl)-5,6-dihydroxypyrimidine-4-carboxamide]",30.5 µM,> 25%,> 50000 nM,–
"O=C(NCC1CCCCC1)c1nc(-c2ccccn2)nc(O)c1O [Compound 1, N-(cyclohexylmethyl)-5,6-dihydroxy-2-(pyridin-2-yl)pyrimidine-4-carboxamide]",167 µM,> 25%,> 50000 nM,–
"C[C@@H](NC(=O)c1nc(-c2cc3ccccc3cn2)nc(O)c1O)C1CCCCC1 [Compound 25, (R)-N-(1-cyclohexylethyl)-5,6-dihydroxy-2-(isoquinolin-3-yl)pyrimidine-4-carboxamide]",3 µM,> 25%,64000 nM,–
"O=C(OCC1CCCCC1)c1nc(-c2ncccc2Cl)nc(O)c1O [Compound 15, cyclohexylmethyl 2-(3-chloropyridin-2-yl)-5,6-dihydroxypyrimidine-4-carboxylate]",–,> 25%,–,> 50000 nM
"C[C@H](NC(=O)c1nc(-c2ccccn2)nc(O)c1O)C1CCCCC1 [Compound 38, (S)-N-(1-cyclohexylethyl)-5,6-dihydroxy-2-(pyridin-2-yl)pyrimidine-4-carboxamide]",46.5 µM,> 25%,11200 nM,–
"C[C@H](NC(=O)c1nc(-c2cc(Cl)ccn2)nc(O)c1O)C1CCCCC1 [Compound 78, (S)-2-(4-chloropyridin-2-yl)-N-(1-cyclohexylethyl)-5,6-dihydroxypyrimidine-4-carboxamide]",18 µM,> 25%,8740 nM,–
"C[C@@H](NC(=O)c1nc(-c2cccc(Cl)n2)nc(O)c1O)C1CCCCC1 [Compound 34, (R)-2-(6-chloropyridin-2-yl)-N-(1-cyclohexylethyl)-5,6-dihydroxypyrimidine-4-carboxamide]",47.5 µM,> 25%,14500 nM,–
"C[C@@H](NC(=O)c1nc(-c2nccc3ccccc23)nc(O)c1O)C1CCCCC1 [Compound 31, (R)-N-(1-cyclohexylethyl)-5,6-dihydroxy-2-(isoquinolin-1-yl)pyrimidine-4-carboxamide]",3.5 µM,> 25%,> 50000 nM,–
"C[C@@H](NC(=O)c1nc(-c2ccc(N)cn2)nc(O)c1O)C1CCCCC1 [Compound 20, (R)-2-(5-aminopyridin-2-yl)-N-(1-cyclohexylethyl)-5,6-dihydroxypyrimidine-4-carboxamide]",3 µM,> 25%,2110 nM,–
"O=C(OCCCC1CCCCC1)c1nc(-c2ccccn2)nc(O)c1O [Compound 14, 3-cyclohexylpropyl 5,6-dihydroxy-2-(pyridin-2-yl)pyrimidine-4-carboxylate]",27.5 µM,> 25%,> 50000 nM,–
"CC(NC(=O)c1nc(-c2cc(Cl)ccn2)nc(O)c1O)C1CCC(F)(F)CC1 (centres unmarked) [Compound 87, 2-(4-chloropyridin-2-yl)-N-(1-(4,4-difluorocyclohexyl)ethyl)-5,6-dihydroxypyrimidine-4-carboxamide]",41 µM,> 25%,> 50000 nM,–
